Data published in ChEMBL document CHEMBL1201862, “PubChem BioAssay data set” (2004).
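Grown in 96-well plates, cells were treated for 48 hours with each compound at five concentrations. Insufficient inhibition: endpoint recorded as highest concentration tested. Abbreviation: GI50, concentration required for 50% inhibition of growth.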 Activity calls are given as the source filed them. Cut-off read from the data, not from the text of the source: active = GI50 up to about 1.1 µM and inactive = higher.

Key:
Experiment in all cases: NCI tumour cell line growth inhibition, 48 h
CAKI-1 = tested on: CAKI-1
SK-MEL-5 = tested on: SK-MEL-5
KM12 = tested on: KM12
OVCAR-8 = tested on: OVCAR-8
786-0 = tested on: 786-0
UO-31 = tested on: UO-31
SK-MEL-28 = tested on: SK-MEL-28
PC-3 = tested on: PC-3
CCRF-CEM = tested on: CCRF-CEM
SW-620 = tested on: SW-620
UACC-62 = tested on: UACC-62
SF-539 = tested on: SF-539
MOLT-4 = tested on: MOLT-4
MDA-MB-435 = tested on: MDA-MB-435
COLO 205 = tested on: COLO 205
NCI-H226 = tested on: NCI-H226
K562 = tested on: K562
TK-10 = tested on: TK-10
SF-268 = tested on: SF-268
IGROV-1 = tested on: IGROV-1
DU-145 = tested on: DU-145
EKVX = tested on: EKVX
HCT-15 = tested on: HCT-15
Malme-3M = tested on: Malme-3M
SK-MEL-2 = tested on: SK-MEL-2
MDA-MB-231 = tested on: MDA-MB-231
HL-60 = tested on: HL-60
HCT-116 = tested on: HCT-116
NCI-H522 = tested on: NCI-H522
SNB-75 = tested on: SNB-75
NCI-H23 = tested on: NCI-H23
A498 = tested on: A498
LOX IMVI = tested on: LOX IMVI
SNB-19 = tested on: SNB-19
SN12C = tested on: SN12C
MCF7 = tested on: MCF7
UACC-257 = tested on: UACC-257
HCC 2998 = tested on: HCC 2998
T47D = tested on: T47D
A549 = tested on: A549
MDA-N = tested on: MDA-N
M14 = tested on: M14
RXF 393 = tested on: RXF 393
SF-295 = tested on: SF-295
OVCAR-4 = tested on: OVCAR-4
HOP-62 = tested on: HOP-62
RPMI-8226 = tested on: RPMI-8226
NCI-H460 = tested on: NCI-H460
SK-OV-3 = tested on: SK-OV-3
SR = tested on: SR
OVCAR-3 = tested on: OVCAR-3
Hs-578T = tested on: Hs-578T
NCI/ADR-RES = tested on: NCI/ADR-RES
ACHN = tested on: ACHN
HT-29 = tested on: HT-29
OVCAR-5 = tested on: OVCAR-5
HOP-92 = tested on: HOP-92
U-251 = tested on: U-251

Measured: GI50

CCOC(=O)C(CC#Cc1ccc(C#CCC(NC(C)=O)C(=O)OCC)cc1)NC(C)=O (centres undefined)
> 100 µM: HCT-15
inactive: CAKI-1 > 100 µM | SK-MEL-5 > 100 µM | KM12 > 100 µM | OVCAR-8 > 100 µM | 786-0 > 100 µM | UO-31 > 100 µM | SK-MEL-28 > 100 µM | PC-3 > 100 µM | CCRF-CEM > 100 µM | SW-620 > 100 µM | UACC-62 > 100 µM | SF-539 > 100 µM | MOLT-4 > 100 µM | MDA-MB-435 > 100 µM | COLO 205 > 100 µM | NCI-H226 > 100 µM | K562 > 100 µM | TK-10 > 100 µM | SF-268 > 100 µM | IGROV-1 > 100 µM | DU-145 > 100 µM | EKVX > 100 µM | Malme-3M > 100 µM | SK-MEL-2 > 100 µM | MDA-MB-231 > 100 µM | HL-60 > 100 µM | HCT-116 > 100 µM | NCI-H522 > 100 µM | SNB-75 > 100 µM | NCI-H23 > 100 µM | A498 > 100 µM | LOX IMVI > 100 µM | SNB-19 > 100 µM | SN12C > 100 µM | MCF7 > 100 µM | UACC-257 > 100 µM | HCC 2998 > 100 µM | T47D > 100 µM | A549 > 100 µM | MDA-N > 100 µM | M14 > 100 µM | RXF 393 > 100 µM | SF-295 > 100 µM | OVCAR-4 > 100 µM | HOP-62 > 100 µM | RPMI-8226 > 100 µM | NCI-H460 > 100 µM | SK-OV-3 > 100 µM | SR > 100 µM | OVCAR-3 > 100 µM | Hs-578T > 100 µM | NCI/ADR-RES > 100 µM | ACHN > 100 µM | HT-29 > 100 µM | OVCAR-5 > 100 µM

COc1cccc(/C=N/NC(=O)CSCC(=O)N/N=C/c2cccc(OC)c2OC)c1OC
inactive: CAKI-1 > 100 µM | SK-MEL-5 58.3 µM | KM12 > 100 µM | OVCAR-8 > 100 µM | 786-0 > 100 µM | HOP-92 > 100 µM | UO-31 > 100 µM | U-251 > 100 µM | SK-MEL-28 > 100 µM | PC-3 > 100 µM | SW-620 > 100 µM | UACC-62 > 100 µM | SF-539 > 100 µM | MOLT-4 > 100 µM | MDA-MB-435 > 100 µM | COLO 205 > 100 µM | NCI-H226 > 100 µM | K562 > 100 µM | TK-10 > 100 µM | SF-268 > 100 µM | IGROV-1 > 100 µM | DU-145 > 100 µM | EKVX > 100 µM | Malme-3M > 100 µM | SK-MEL-2 > 100 µM | MDA-MB-231 > 100 µM | HL-60 > 100 µM | HCT-116 > 100 µM | NCI-H522 > 100 µM | SNB-75 > 100 µM | NCI-H23 > 100 µM | A498 51.2 µM | SNB-19 > 100 µM | SN12C > 100 µM | MCF7 > 100 µM | UACC-257 > 100 µM | HCC 2998 > 100 µM | T47D > 100 µM | A549 > 100 µM | M14 > 100 µM | RXF 393 > 100 µM | SF-295 > 100 µM | OVCAR-4 > 100 µM | HOP-62 > 100 µM | RPMI-8226 > 100 µM | NCI-H460 > 100 µM | SK-OV-3 > 100 µM | SR > 100 µM | OVCAR-3 > 100 µM | Hs-578T 37.7 µM | NCI/ADR-RES > 100 µM | ACHN > 100 µM | HT-29 > 100 µM | OVCAR-5 > 100 µM
> 100 µM: HCT-15

C[C@H](CCC(=O)O)[C@H]1CC[C@H]2[C@@H]3CC[C@@H]4C[C@H](O)CC[C@]4(C)[C@H]3CC[C@]12C [LITHOCHOLIC ACID]
inactive: A498 > 100 µM

C[C@@H]1O[C@@H](O[C@H]2C[C@@H](O)[C@]3(CO)[C@H]4[C@H](O)C[C@]5(C)[C@@H](C6=CC(=O)OC6)CC[C@]5(O)[C@@H]4CC[C@]3(O)C2)[C@H](O)[C@H](O)[C@H]1O [OUABAIN]
inactive: CCRF-CEM 21.1 µM
active: SNB-75 0.0162 µM
